Experimental data taken from US7868013B2, “Cycloalkyl substituted pyrimidinediamine compounds and their uses” (Rigel Pharmaceuticals, Inc., priority 2004, dated 2011).
Like-named read-outs stand apart in the source and are kept apart here.

Experiments:
Format in all cases: cell-based
[1] = test system: A549 (lung carcinoma); test: In vitro antiproliferation assay, A549 cells (TABLE 1 6 point assay; TABLE 2); conditions: Homo sapiens
Experimental: (§1) Certain compounds were tested against other cell types for their ability to inhibit proliferation in standard antiproliferation assays.

[2] = test system: H1299 (non-small cell lung carcinoma); test: In vitro antiproliferation assay, H1299 cells (TABLE 1 6 point assay; TABLE 2); conditions: Homo sapiens
Experimental: as §1

[3] = test system: ASPC-1 (pancreatic adenocarcinoma); test: In vitro antiproliferation assay, ASPC-1 cells; conditions: Homo sapiens, ASPC1
Experimental: as §1

[4] = test system: BXPC-3 (pabcreatic adenocarcinoma); test: In vitro antiproliferation assay, BXPC-3 cells; conditions: Homo sapiens
Experimental: as §1

[5] = test system: CaOV-3 (ovarian adenocarcinoma); test: In vitro antiproliferation assay, CaOV-3 cells; conditions: Homo sapiens
Experimental: as §1

[6] = test system: COLO 205 (colorectal adenocarcinoma); test: In vitro antiproliferation assay, COLO 205 cells; conditions: Homo sapiens, COLO 205; Colo205
Experimental: as §1

[7] = test system: DU145 (prostate carcinoma); test: In vitro antiproliferation assay, DU145 cells; conditions: Homo sapiens, DU-145; DU145; read-out: In Vitro IC50
Experimental: (§2) Cis racemic Compound 15, (1S,2R) enantiomeric Compound 15a and […] enantiomeric Compound 15b were also tested against DU145 (prostate carcinoma), HCT116 (colorectal carcinoma) and MiaPaCa-2 (pancreatic carcinoma) cell lines.
as §1

[8] = test system: H1155 (non-small cell lung carcinoma); test: In vitro antiproliferation assay, H1155 cells; conditions: Homo sapiens, NCI-H1155
Experimental: as §1

[9] = test system: H7299; test: In vitro antiproliferation assay, H7299 cells
Experimental: as §1

[10] = test system: HELA (cervical adenocarcinoma); test: In vitro antiproliferation assay, HELA cells; conditions: Homo sapiens, HeLa
Experimental: as §1

[11] = test system: HL160 (promyeloblast promyelocytic leukemia); test: In vitro antiproliferation assay, HL160 cells
Experimental: as §1

[12] = test system: K562 (bone marrow chronic myelogenous leukemia); test: In vitro antiproliferation assay, K562 cells; conditions: Homo sapiens
Experimental: as §1

[13] = test system: L1210 (mouse lymphocytic leukemia); test: In vitro antiproliferation assay, L1210 cells; conditions: Mus musculus
Experimental: as §1

[14] = test system: MiaPaCa-2 (pancreatic carcinoma); test: In vitro antiproliferation assay, MiaPaCa-2 cells; conditions: Homo sapiens, MIA PaCa-2; Miapaca2; read-out: In Vitro IC50
Experimental: as §2, §1

[15] = test system: MOLT3 (T lymphoblast acute lymphoblastic leukemia); test: In vitro antiproliferation assay, MOLT3 cells; conditions: Homo sapiens, MOLT-3
Experimental: as §1

[16] = test system: MOLT4 (T lymphoblast acute lymphoblastic leukemia); test: In vitro antiproliferation assay, MOLT4 cells; conditions: Homo sapiens, MOLT-4
Experimental: as §1

[17] = test system: PC3 (prostate adenocarcinoma); test: In vitro antiproliferation assay, PC3 cells; conditions: Homo sapiens, PC-3
Experimental: as §1

[18] = test system: SK-OV-3 (ovarian adenocarcinoma); test: In vitro antiproliferation assay, SK-OV-3 cells; conditions: Homo sapiens, SKOV3
Experimental: as §1

[19] = test system: SU86.86 (pancreatic carcinoma); test: In vitro antiproliferation assay, SU86.86 cells; conditions: Homo sapiens, SU.86.86
Experimental: as §1

[20] = test system: SW620 (colorectal adenocarcinoma); test: In vitro antiproliferation assay, SW620 cells; conditions: Homo sapiens, SW-620
Experimental: as §1

[21] = test system: THP-1 (monocyte acute monocytic leukemia); test: In vitro antiproliferation assay, THP-1 cells; conditions: Homo sapiens
Experimental: as §1

[22] = test system: TOV-21G (ovarian clear cell carcinoma); test: In vitro antiproliferation assay, TOV-21G cells; conditions: Homo sapiens, TOV21G; TOV-G21
Experimental: as §1

[23] = test system: U2OS (bone osteosarcoma); test: In vitro antiproliferation assay, U2OS cells; conditions: Homo sapiens, U2OS; U20S
Experimental: as §1

[24] = test system: U937 (histiocytic lymphoma); test: In vitro antiproliferation assay, U937 cells; conditions: Homo sapiens, U-937
Experimental: as §1

[25] = molecular target: T1, Aurora kinase-B (Homo sapiens, UniProt Q96GD4); test: Functional cellular assay of Aurora kinase-B: phosphorylation of histone H3 in A549 cells; conditions: A549 cells, phospho-histone H3; read-out: IC50 of Aurora kinase-B inhibition
T1 construct: endogenous in cells; host or cells: A549 cells
T1 sequence (Q96GD4 whole entry): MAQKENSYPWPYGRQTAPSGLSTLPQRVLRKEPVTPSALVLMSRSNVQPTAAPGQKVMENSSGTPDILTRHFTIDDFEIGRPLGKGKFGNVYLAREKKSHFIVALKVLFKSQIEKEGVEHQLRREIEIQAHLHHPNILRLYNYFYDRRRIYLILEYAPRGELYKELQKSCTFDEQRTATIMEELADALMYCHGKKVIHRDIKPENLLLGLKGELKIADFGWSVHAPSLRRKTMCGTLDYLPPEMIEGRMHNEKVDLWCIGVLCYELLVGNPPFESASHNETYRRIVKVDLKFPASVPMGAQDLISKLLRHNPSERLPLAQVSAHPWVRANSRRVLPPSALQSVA
Experimental: Enantiomers E1 and E2 (Compounds 60a and 60b, respectively) were tested for their ability to inhibit Aurora kinase-B in a functional cellular assay involving phosphorylation of its substrate, histone H3. For the assay, A549 cells were seeded into the wells of a microtiter tray (5000 cells/well in 100 μl F12K media) late in the afternoon on Day 1. The cells were grown overnight (37° C., 5% CO2) On Day 2, 50 μl nocodazole (1 μM in media) was added to each well, giving a final concentration of 333 nM. Cells were grown for an additional 18 hrs under the same conditions.
On Day 3, 50 μl aliguots of varying concentrations of test compound were added to the wells Test compounds were prepared by 2-fold serial dilution of a […] stock (in DMSO). The diluted compounds in DMSO were then further diluted 1:50 with media to yield a final solution containing 4× test compound, 98% media, 2% DMSO. After incubation, the media/test compound was washed and the cells fixed with 2% paraformaldehyde (in Dulbecco's phosphate buffered saline “DPBS”; 25 μl per well; […] incubation). […] The cells were then stained with a secondary antibody labeled with a fluorescent dye (secondary antibody donkey anti-mouse AlexFluor 488 (Invitrogen Molecular Probes; 1:2000) and DAPI (1:15,000 of 1 mg/ml stock) for 1 hr at room temperature, washed three times with DPBS (200 μl/well) and stored under DPBS (100 μl/well) at 4° C. until ready for analysis.
A Zeiss Axiovert S100 inverted fluorescent microscope with a Plan-NEOFLUAR 10× objective, a Hamamatsu Lightningcure 200 Mercury-Xenon light source and an Omega Optical XF57 quad filter was used for all data collection. […] Images were captured and analyzed in 12-bit format using segmentation and morphological routines contained in the Image Pro software package. Identified nuclei were counted and pixel data for each cell along with experimental conditions was stored in a database using MySQL 4.0.14. […]
For phospho-histone H3 analysis the data is converted to Facs files and analysed using FlowJo. […]

Molecule `Cc1cc(Nc2ncc(F)c(N[C@H]3[C@@H](C(N)=O)[C@@H]4C=C[C@H]3C4)n2)ccc1N1CCN(C)CC1` (single isomer, unassigned) [Compound 60a] has an IC50 ([1]; A549, 6 point assay, A549 cells, read-out: IC50, A549 cells) of no more than 100 nM, an IC50 ([1]; A549, A549, read-out: In Vitro IC50) of no more than 10 nM and an IC50 ([2]; NCI-H1299, 6 point assay, H1299 cells, read-out: IC50, H1299 cells) of no more than 100 nM. For the same molecule, the IC50 ([2]; NCI-H1299, H1299, read-out: In Vitro IC50) was no more than 10 nM, the IC50 [3] was no more than 10 nM and the IC50 [4] was no more than 10 nM. The IC50 [5] was no more than 10 nM, the IC50 [6] was no more than 10 nM and the IC50 [7] was no more than 20 nM. The IC50 [8] was no more than 10 nM, the IC50 [9] was no more than 20 nM and the IC50 [10] was no more than 10 nM. It also gave an IC50 [11] of no more than 10 nM, an IC50 [12] of no more than 1000 nM and an IC50 [13] of no more than 20 nM. The IC50 [14] was no more than 10 nM, the IC50 [15] was no more than 10 nM and the IC50 [16] was no more than 10 nM. The IC50 [17] was no more than 10 nM, the IC50 [18] was no more than 20 nM and the IC50 [19] was no more than 20 nM. For the same molecule, the IC50 [20] was no more than 20 nM, the IC50 [21] was no more than 1000 nM and the IC50 [22] was no more than 10 nM. The IC50 [23] was no more than 10 nM, the IC50 [24] was no more than 10 nM and the IC50 [25] was roughly 7 nM.
